In patent publication US20210317143A9, “BORONIC ESTER PRODRUGS AND USES THEREOF” (Massachusetts Institute of Technology, priority 2019, published 2021):

What was measured:
[1] = test system: MM.1S cells; assay: In vitro cell viability assay (Celltiter glo) in MM.1S; assay type: cell-based; conditions: Homo sapiens, MM1.S, effect on cell proliferation after 48 h of incubation
Method: (§1) The effect on cell proliferation after 48 h of incubation with each agent was compared.
(§2) Both cell lines were cultured in RPMI media (ThermoFisher Scientific) supplemented with 10% FBS (VWR), 1% Penicillin/Streptomycin (ThermoFisher Scientific), and 1% glutamine (ThermoFisher Scientific). MM.1SLuc+/GFP+ cells were generated by retroviral transduction and authenticated by short tandem repeat DNA profiling. All cell lines were confirmed to be mycoplasma negative using the kit MycoAlert Mycoplasma (Lonza). Cell lines were housed in 5% CO2 and 37° C., incubators.
(§3) Cells were plated at 10,000 cells/well in a 96 well plate overnight and then treated for 48 hours with either bortezomib (Btz) or Btz-bottlebrush (BBP) at various concentrations. Cell viability assay was performed using the Celltiter glo reagent kit (Promega).
(§4) Toxicological studies were carried out including in vitro cell viability experiments and in vivo survivability studies (FIGS. 8A to 8B and FIG. 9A, respectively). The in vitro cell viability studies were carried out in both MM S model (for experimental details see Manier, S, et al., Science Translational Medicine 2017, 9, 389) and KMS11 flank cancer model. […] For the maximum tolerated dose (MTD) studies, animals (n=3-5) were dosed 4 times, with the exception that the 20 mg/kg group was dosed three times.

[2] = test system: KMS11 cells; assay: In vitro cell viability assay (Celltiter glo) in KMS11; assay type: cell-based; conditions: Homo sapiens, KMS-11; KMS11, effect on cell proliferation after 48 h of incubation
Method: as §1, §2, §3, §4

[3] = In vivo toxicity / maximum tolerated dose in healthy BALB/c mice; conditions: BALB/c, mouse, in vivo, subcutaneous
Method: (§5) Mice were euthanized if their body weight reached a 20% loss.
as §4

[4] = test system: healthy BALB/c mice; assay: as above; conditions: twice a week
Method: as §5, §4

[5] = test system: KMS11 subcutaneous tumor; assay: Efficacy study in subcutaneous model of MM (KMS11); assay type: in vivo, mice; conditions: 0.75 mg/kg twice a week (Btz at MTD; Btz-BBP dose-match, intravenous)
Method: Treatments were administered over a period of 50 days, after which tumor were left to freely progress.
The subcutaneous model of MM was generated with an injection of 3 million KMS11 cells in the hind flank of NCR nude mice. […] Tumor growth was monitor by caliper measurements (tumor measurement. TM). Once the tumor reached 1 cm in diameter, mice were randomly attributed to a treatment group. […] Drug was injected twice a week for a period of 4 weeks (8 injections in total) after mice were enrolled in the study. Mice body weight were tracked till day 50 (body weight measurement, BWM). Animals were sacrificed once the tumor reached 2 cm in the longest axis.

[6] = test system: MM.1SLuc+/GFP+ cells; conditions: 0.75 mg/kg (free Btz MTD; Btz-BBP dose-match)
Method: The tumors were induced via intravenous injection of MM.1SLuc+/GFP+ cells, and tumor progression was quantified by bioluminescence via the luciferase signal expressed by the MM.1S cells (FIGS. 12A to 12F). […] Mice (n=5) were treated for 30 days with the same treatment groups and dosing schedule described in the previous tumor model.
The orthotopic model of MM was obtained by injecting intravenously 1.5 million MM.1SLuc+/GFP+ cells in the tail vain of SCID/beige mice. Tumor dissemination was assessed by IVIS imaging (IVIS Spectrum. Perkin Elmer, bioluminescence imaging, BLI) once a week. […] Drug was injected twice a week for a period of 2 weeks (4 injections in total). Tumor burden response was obtained by IVIS imaging performed once a week. After 25 days, treatment was stopped. Endpoint criteria of the study was hind limb paralysis or loss of >20% of their initial body weight.

CC(C)C[C@H](NC(=O)[C@H](Cc1ccccc1)NC(=O)c1cnccn1)B(O)O [Btz, bortezomib]
IC50 [1]: 3.5 ± 1.4 nM | IC50 [2]: 29.9 ± 1.6 nM | MTD at 4 weeks [3]: 0.75 mg/kg | survival rates at higher doses ([4]; free Btz above 0.75 mg/kg (1, 1.25 mg/kg)): rapid decrease of the survival rates | well-tolerated / safe dose ([4]; healthy BALB/c mice): 0.75 mg/kg | mean survival time [5]: 42 ± 6 days | therapeutic improvement [6]: diminished improvements
